In ChEMBL document CHEMBL4406824, “Phenolic N-monosubstituted carbamates: Antitubercular and toxicity evaluation of multi-targeting compounds” (Eur J Med Chem, 2019):
Values after ≈ are worked out from the molar mass of the structure shown.

What was measured:
[1] = system: Mycobacterium avium; experiment: Antimycobacterial activity against Mycobacterium avium 330/88 after 14 days; type: functional; settings: 330/88, 336 h
[2] = system: Mycobacterium tuberculosis; type: functional; settings: H37Rv 331/88, 504 h
[3] = system: Mycobacterium tuberculosis; type: functional; settings: H37Rv 331/88, 336 h
[4] = system: Mycobacterium avium; experiment: Antimycobacterial activity against Mycobacterium avium 330/88 after 21 days; type: functional; settings: 330/88, 504 h
[5] = system: Mycobacterium kansasii; experiment: Antimycobacterial activity against Mycobacterium kansasii 235/80 after 7 days; type: functional; settings: 235/80, 168 h
[6] = system: Mycobacterium kansasii; experiment: Antimycobacterial activity against Mycobacterium kansasii 235/80 after 14 days; type: functional; settings: 235/80, 336 h
[7] = system: Mycobacterium kansasii; experiment: Antimycobacterial activity against Mycobacterium kansasii 235/80 after 21 days; type: functional; settings: 235/80, 504 h
[8] = system: Mycobacterium kansasii; experiment: Antimycobacterial activity against Mycobacterium kansasii 6509/96 after 7 days; type: functional; settings: 6509/96, 168 h
[9] = system: Mycobacterium kansasii; experiment: Antimycobacterial activity against Mycobacterium kansasii 6509/96 after 14 days; type: functional; settings: 6509/96, 336 h
[10] = system: Mycobacterium kansasii; experiment: Antimycobacterial activity against Mycobacterium kansasii 6509/96 after 21 days; type: functional; settings: 6509/96, 504 h
[11] = system: Mycobacterium tuberculosis H37Rv; experiment: Inhibition of recombinant Mycobacterium tuberculosis H37Rv ICL1 expressed in Escherichia coli BL21 (DE3) cells at 10 uM using (+)-potassium Ds-threo-isocitrate as substrate by glyoxylate phenyl hydrazone formation assay relative to control
[12] = in vitro; settings: human, HepG2 cells
Description: Selectivity index, ratio of IC50 for human HepG2 cells to MIC for antimycobacterial activity against Mycobacterium tuberculosis H37Rv

[13] = system: Mycobacterium tuberculosis; type: functional, H37Rv 331/88; design: reference not given here
[14] = system: Mycobacterium kansasii; experiment: Potency index, ratio of p-aminosalicylic acid MIC to compound MIC for antimycobacterial activity against Mycobacterium kansasii 235/80; type: functional
[15] = system: Mycobacterium kansasii; experiment: Potency index, ratio of p-aminosalicylic acid MIC to compound MIC for antimycobacterial activity against Mycobacterium kansasii 6509/96; type: functional
[16] = system: Mycobacterium tuberculosis; experiment: Antimycobacterial activity against Mycobacterium tuberculosis H37Ra ITM-M006710 after 48 hr by resazurin dye based microdilution method; type: functional; settings: H37Ra ITM-M006710, 48 h
[17] = system: Mycolicibacterium aurum; experiment: Antimycobacterial activity against Mycobacterium aurum DSM 43999 after 72 hr by resazurin dye based microdilution method; type: functional; settings: DSM 43999, 72 h
[18] = system: Mycolicibacterium smegmatis; experiment: Antimycobacterial activity against Mycobacterium smegmatis DSM 43465 after 120 hr by resazurin dye based microdilution method; type: functional; settings: DSM 43465, 120 h
[19] = system: HepG2; experiment: Cytotoxicity against human HepG2 cells assessed as reduction in cell viability after overnight incubation by MTT assay; type: cell-based
[20] = system: HepG2; experiment: Cytostatic activity against human HepG2 cells preincubated for overnight in serum free medium followed by compound wash out and further incubated for 72 hrs in presence of serum by MTT assay; type: ADME, cell-based

SMILES	MIC [1]	MIC [2]	MIC [3]	MIC [4]	MIC [5]	MIC [6]	MIC [7]	MIC [8]	MIC [9]	MIC [10]	inhibition [11]	selectivity ratio [12]	Ratio [13]	Ratio [14]	Ratio [15]	MIC [16]	MIC [17]	MIC [18]	IC50 [19]	IC50 [20]
Nc1ccc(C(=O)O)c(O)c1 [AMINOSALICYLIC ACID]	32 µM (≈ 4.9 µg/mL)	62.5 µM (≈ 9.57 µg/mL)	62.5 µM (≈ 9.57 µg/mL)	125 µM (≈ 19.1 µg/mL)	125 µM (≈ 19.1 µg/mL)	1000 µM (≈ 153 µg/mL)	> 1000 µM	32 µM (≈ 4.9 µg/mL)	125 µM (≈ 19.1 µg/mL)	500 µM (≈ 76.6 µg/mL)	0%	35.8	–	–	–	–	–	–	–	–
O=C(NCCc1ccccc1)Oc1ccc(Cl)cc1C(=O)Nc1ccc(F)cc1	32 µM (≈ 13.2 µg/mL)	4 µM (≈ 1.65 µg/mL)	4 µM (≈ 1.65 µg/mL)	32 µM (≈ 13.2 µg/mL)	8 µM (≈ 3.3 µg/mL)	16 µM (≈ 6.61 µg/mL)	16 µM (≈ 6.61 µg/mL)	8 µM (≈ 3.3 µg/mL)	16 µM (≈ 6.61 µg/mL)	16 µM (≈ 6.61 µg/mL)	15%	10.4	>125	>250	>250	3.12 µg/mL	3.12 µg/mL (≈ 7.57 µM)	3.12 µg/mL (≈ 7.57 µM)	41.5 µM	7.6 µM
O=C(NC1CCCCC1)Oc1ccc(Cl)cc1	500 µM (≈ 127 µg/mL)	500 µM (≈ 127 µg/mL)	500 µM (≈ 127 µg/mL)	1000 µM (≈ 254 µg/mL)	250 µM (≈ 63.4 µg/mL)	500 µM (≈ 127 µg/mL)	1000 µM (≈ 254 µg/mL)	125 µM (≈ 31.7 µg/mL)	250 µM (≈ 63.4 µg/mL)	250 µM (≈ 63.4 µg/mL)	16%	> 0.3	–	–	–	500 µg/mL	≥ 500 µg/mL	≥ 500 µg/mL	> 125 µM	> 125 µM
O=C(Nc1ccccc1)Oc1ccccc1C(=O)Nc1ccccc1	125 µM (≈ 41.5 µg/mL)	125 µM (≈ 41.5 µg/mL)	125 µM (≈ 41.5 µg/mL)	125 µM (≈ 41.5 µg/mL)	125 µM (≈ 41.5 µg/mL)	250 µM (≈ 83.1 µg/mL)	250 µM (≈ 83.1 µg/mL)	125 µM (≈ 41.5 µg/mL)	250 µM (≈ 83.1 µg/mL)	250 µM (≈ 83.1 µg/mL)	5%	0.5	–	–	–	31.2 µg/mL	31.2 µg/mL (≈ 94 µM)	31.2 µg/mL (≈ 94 µM)	57.6 µM	26.8 µM
O=C(O)CC[N+](=O)[O-]	–	–	–	–	–	–	–	–	–	–	25%	–	–	–	–	–	–	–	–	–
O=C(NC12CC3CC(CC(C3)C1)C2)Oc1ccc(Cl)cc1	125 µM (≈ 38.2 µg/mL)	125 µM (≈ 38.2 µg/mL)	62.5 µM (≈ 19.1 µg/mL)	250 µM (≈ 76.5 µg/mL)	125 µM (≈ 38.2 µg/mL)	125 µM (≈ 38.2 µg/mL)	125 µM (≈ 38.2 µg/mL)	125 µM (≈ 38.2 µg/mL)	125 µM (≈ 38.2 µg/mL)	125 µM (≈ 38.2 µg/mL)	13%	> 1	–	–	–	62.5 µg/mL	≥ 125 µg/mL	≥ 125 µg/mL	> 125 µM	> 250 µM
NNC(=O)c1ccncc1 [ISONIAZID]	> 250 µM	1 µM (≈ 0.137 µg/mL)	0.5 µM (≈ 0.0686 µg/mL)	> 250 µM	> 250 µM	> 250 µM	> 250 µM	4 µM (≈ 0.549 µg/mL)	8 µM (≈ 1.1 µg/mL)	8 µM (≈ 1.1 µg/mL)	0%	> 250	–	–	–	0.91 to 1.82 µM	3.91 µg/mL (≈ 28.5 µM)	15.6 µg/mL (≈ 114 µM)	> 250 µM	–
O=C(NC12CC3CC(CC(C3)C1)C2)Oc1ccccc1C(=O)Nc1ccccc1	125 µM (≈ 48.8 µg/mL)	125 µM (≈ 48.8 µg/mL)	125 µM (≈ 48.8 µg/mL)	125 µM (≈ 48.8 µg/mL)	125 µM (≈ 48.8 µg/mL)	125 µM (≈ 48.8 µg/mL)	125 µM (≈ 48.8 µg/mL)	125 µM (≈ 48.8 µg/mL)	250 µM (≈ 97.6 µg/mL)	250 µM (≈ 97.6 µg/mL)	9%	> 2	–	–	–	250 µg/mL	≥ 250 µg/mL	250 µg/mL (≈ 640 µM)	> 250 µM	233 µM
